pEC50: −log10 of the molar value.
Target: T1, human β3-AR (Homo sapiens, UniProt P13945)
T1 construct: expressed in transfected cells; host or cells: CHO (Chinese hamster ovary) cells, stably transfected
Test: cAMP functional agonist assay (LANCE TR-FRET) in CHO cells expressing cloned human β3-AR
Type: cell-based
Conditions: for pEC50: CHO cells stably expressing cloned human β3-adrenoceptor, cAMP release, read-out: Human β3-AR Agonism EC50; for Fold drop in potency vs. 2-chloropyridine analog: EC50 of comparative example divided by EC50 of corresponding 2-chloropyridine compound; for Human β3-AR Agonist Activity (%): percent maximum activation relative to isoproterenol
Procedure: The ability of compounds to activate the human β3-AR receptor was measured using a CHO cell line stably expressing the cloned human β1-, β2-, and β3-adrenoceptors (β-AR). […] To quantify the amount of cAMP released following β-AR activation, the LANCE cAMP kit (Perking Elmer), a time-resolved fluorescence resonance energy transfer immunoassay, was used. Compounds were serially diluted in DMSO and an aliquot added to either 384-well or 96-well micro titer plates in assay buffer (5 mM HEPES, 0.1% BSA in Hank's Balanced Salt Solution). […] Following 30 min incubation at room temperature, the cells were lysed by the addition of LANCE detection buffer which contained a europium-labeled cAMP tracer. Fluorescence was measured following one hour incubation at room temperature using a Perking Elmer Envision plate reader, exciting at 340 nm and measuring emission at 615 nm and 665 nm. For each assay, a cAMP standard curve was included and used to convert fluorescence readings directly to cAMP amounts. The values were then normalized to isoproterenol, a known full agonist of β-AR, which was titrated in every assay and the EC50 determined using a custom in-house data analysis package. Along with EC50, the percent maximum activation relative to isoproterenol is reported.
The cAMP production is measured using a homogenous time-resolved fluorescence resonance energy transfer immunoassay (LANCE™, Perkin Elmer) according to the manufacture's instructions. Chinese hamster ovary (CHO) cells, stably transfected with the cloned β-adrenergic receptor (β1, β2 or β3) are harvested after 3 days of subculturing. Harvesting of cells is done with Enzyme-free Dissociation Media (Specialty Media). Cells are then counted and resuspended in assay buffer (Hank's Balanced salt solution supplemented with 5 mM HEPES, […]) containing a phosphodiesterase inhibitor (IBMX, 0.6 mM). The reaction is initiated by mixing 6,000 cells in 6 μL with 6 μL Alexa Fluor labeled cAMP antibody (LANCE™ kit) which is then added to an assay well containing 12 μL of compound (diluted in assay buffer to 2× final concentration). The reaction proceeds for 30 minutes at RT and is terminated by the addition of 24 ul detection buffer (LANCE™ kit). The assay plate is then incubated for 1 h at RT and time-resolved fluorescence measured on a Perkin Elmer Envision reader or equivalent. The unknown cAMP level is determined by comparing fluorescence levels to a cAMP standard curve.
The non-selective, full agonist β-adrenergic ligand isoproterenol is used at all three receptors to determine maximal stimulation. […] Data are analyzed using Microsoft Excel and Graphpad Prism or an internally developed data analysis software package. […]

T1 sequence (P13945 whole entry): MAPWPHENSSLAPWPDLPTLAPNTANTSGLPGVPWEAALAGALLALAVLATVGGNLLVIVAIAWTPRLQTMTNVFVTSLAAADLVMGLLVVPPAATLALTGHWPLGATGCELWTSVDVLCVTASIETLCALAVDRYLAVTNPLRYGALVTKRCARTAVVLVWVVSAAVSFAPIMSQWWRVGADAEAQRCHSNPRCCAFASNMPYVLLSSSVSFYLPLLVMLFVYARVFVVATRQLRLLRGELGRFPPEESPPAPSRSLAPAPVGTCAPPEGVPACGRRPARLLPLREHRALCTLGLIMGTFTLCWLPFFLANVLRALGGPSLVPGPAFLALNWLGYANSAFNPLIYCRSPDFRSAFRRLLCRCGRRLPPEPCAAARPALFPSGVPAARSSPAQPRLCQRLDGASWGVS

Row | SMILES | pEC50 | Fold drop in potency vs. 2-chloropyridine analog [fold] | Human β3-AR Agonist Activity (%)
1 | CN(Cc1cncc(-c2nn[nH]n2)c1)C(=O)c1ccc(C[C@@H]2CC[C@H]([C@H](O)c3ccccc3)N2)cc1 [Example 37-B, N-((5-(1H-tetrazol-5-yl)pyridin-3-yl)methyl)-4-(((2S,5R)-5-((R)-hydroxy(phenyl)methyl)pyrrolidin-2-yl)methyl)-N-methylbenzamide] | 7.20 | 2.4 | 101
2 | CN(Cc1cncc(C(C)(C)O)c1)C(=O)c1ccc(C[C@@H]2CC[C@H]([C@H](O)c3ccc(Cl)cc3)N2)cc1 [Example 32-G, 4-(((2S,5R)-5-((R)-(4-chlorophenyl)(hydroxy)methyl)pyrrolidin-2-yl)methyl)-N-((5-(2-hydroxypropan-2-yl)pyridin-3-yl)methyl)-N-methylbenzamide] | 7.80 | 1.2 | 98
3 | COC(=O)c1cncc(CN(C)C(=O)c2ccc(C[C@@H]3CC[C@H]([C@H](O)c4ccc(Cl)cc4)N3)cc2)c1 [Example 34-G, Methyl 5-((4-(((2S,5R)-5-((R)-(4-chlorophenyl)(hydroxy)methyl)pyrrolidin-2-yl)methyl)-N-methylbenzamido)methyl)nicotinate] | 7.74 | 2.9 | 90
4 | CN(Cc1cccnc1F)C(=O)c1ccc(C[C@@H]2CC[C@H]([C@H](O)c3cccnc3)N2)cc1 [Example 26-H, N-((2-fluoropyridin-3-yl)methyl)-4-(((2S,5R)-5-((R)-hydroxy(pyridin-3-yl)methyl)pyrrolidin-2-yl)methyl)-N-methylbenzamide] | 6.40 | 11.3 | 96
5 | C[C@H](c1nn(C)c(=O)o1)N(C)C(=O)c1ccc(C[C@@H]2CC[C@H]([C@H](O)c3ccc(Cl)cc3)N2)cc1 [Example 18-G, 4-(((2S,5R)-5-((R)-(4-chlorophenyl)(hydroxy)methyl)pyrrolidin-2-yl)methyl)-N-methyl-N—((R)-1-(4-methyl-5-oxo-4,5-dihydro-1,3,4-oxadiazol-2-yl)ethyl)benzamide] | 7.89 | 1.7 | 101
6 | O=C(c1ccc(C[C@@H]2CC[C@H]([C@H](O)c3cccnc3)N2)cc1)N(CCO)Cc1cccnc1F [Example 27-H, N-((2-fluoropyridin-3-yl)methyl)-4-(((2S,5R)-5-((R)-hydroxy(pyridin-3-yl)methyl)pyrrolidin-2-yl)methyl)-N-(2-hydroxyethyl)benzamide] | 5.86 | 288.6 | 78
7 | Cc1cc(CN(C)C(=O)c2ccc(C[C@@H]3CC[C@H]([C@H](O)c4ccc(F)cc4)N3)cc2)n[nH]1 [Example 4-F, 4-(((2S,5R)-5-((R)-(4-fluorophenyl)(hydroxy)methyl)pyrrolidin-2-yl)methyl)-N-methyl-N-((5-methyl-1H-pyrazol-3-yl)methyl)benzamide] | 7.72 | 3.5 | 105
8 | COc1c(C)n[nH]c1CN(C)C(=O)c1ccc(C[C@@H]2CC[C@H]([C@H](O)c3ccccc3)N2)cc1 [Example 16-B, 4-(((2S,5R)-5-((R)-hydroxy(phenyl)methyl)pyrrolidin-2-yl)methyl)-N-((4-methoxy-5-methyl-1H-pyrazol-3-yl)methyl)-N-methylbenzamide] | 8.00 | 6.2 | 101
9 | COCc1cc(CN(C)C(=O)c2ccc(C[C@@H]3CC[C@H]([C@H](O)c4ccccc4)N3)cc2)n[nH]1 [Example 9-B, 4-(((2S,5R)-5-((R)-hydroxy(phenyl)methyl)pyrrolidin-2-yl)methyl)-N-((5-(methoxymethyl)-1H-pyrazol-3-yl)methyl)-N-methylbenzamide] | 7.82 | 5.5 | 102
10 | CN(Cc1cccnc1)C(=O)c1ccc(C[C@@H]2CC[C@H]([C@H](O)c3cccnc3)N2)cc1 [Example 21-H, 4-(((2S,5R)-5-((R)-hydroxy(pyridin-3-yl)methyl)pyrrolidin-2-yl)methyl)-N-methyl-N-(pyridin-3-ylmethyl)benzamide] | 7.42 | 8.8 | 85
11 | CN(Cc1cnccn1)C(=O)c1ccc(C[C@@H]2CC[C@H]([C@H](O)c3cccc(Cl)c3)N2)cc1 [Example 40-D, 4-(((2S,5R)-5-((R)-(3-chlorophenyl)(hydroxy)methyl)pyrrolidin-2-yl)methyl)-N-methyl-N-(pyrazin-2-ylmethyl)benzamide] | 6.25 | 48.6 | 86
12 | CN(Cc1cccc(=O)[nH]1)C(=O)c1ccc(C[C@@H]2CC[C@H]([C@H](O)c3ccccc3)N2)cc1 [Example 20-B, 4-(((2S,5R)-5-((R)-hydroxy(phenyl)methyl)pyrrolidin-2-yl)methyl)-N-methyl-N-((6-oxo-1,6-dihydropyridin-2-yl)methyl)benzamide] | 8.05 | 2.1 | 103

More lines, now with the values ahead:

Row | pEC50 | Fold drop in potency vs. 2-chloropyridine analog [fold] | Human β3-AR Agonist Activity (%) | SMILES
13 | 7.55 | 8.9 | 100 | CN(Cc1ccc(Cl)nc1)C(=O)c1ccc(C[C@@H]2CC[C@H]([C@H](O)c3ccccc3)N2)cc1 [Example 30-B, N-((6-chloropyridin-3-yl)methyl)-4-(((2S,5R)-5-((R)-hydroxy(phenyl)methyl)pyrrolidin-2-yl)methyl)-N-methylbenzamide]
14 | 7.89 | – | 95 | CCc1[nH]nc(CN(C)C(=O)c2ccc(C[C@@H]3CC[C@H]([C@H](O)c4ccc(Cl)nc4)N3)cc2)c1C [Example 12-A, 4-(((2S,5R)-5-((R)-(6-chloropyridin-3-yl)(hydroxy)methyl)pyrrolidin-2-yl)methyl)-N-((5-ethyl-4-methyl-1H-pyrazol-3-yl)methyl)-N-methylbenzamide]
15 | 7.11 | 24.4 | 101 | CN(Cc1ccc(Cl)nc1)C(=O)c1ccc(C[C@@H]2CC[C@H]([C@H](O)c3ccc(F)cc3)N2)cc1 [Example 30-F, N-((6-chloropyridin-3-yl)methyl)-4-(((2S,5R)-5-((R)-(4-fluorophenyl)(hydroxy)methyl)pyrrolidin-2-yl)methyl)-N-methylbenzamide]
16 | 7.46 | – | 97 | CN(Cc1cccnc1F)C(=O)c1ccc(C[C@@H]2CC[C@H]([C@H](O)c3ccc(Cl)nc3)N2)cc1 [Example 26-A, 4-(((2S,5R)-5-((R)-(6-chloropyridin-3-yl)(hydroxy)methyl)pyrrolidin-2-yl)methyl)-N-((2-fluoropyridin-3-yl)methyl)-N-methylbenzamide]
17 | 8.30 | – | 108 | CN(Cc1cccc(=O)[nH]1)C(=O)c1ccc(C[C@@H]2CC[C@H]([C@H](O)c3ccc(Cl)nc3)N2)cc1 [Example 20-A, 4-(((2S,5R)-5-((R)-(6-chloropyridin-3-yl)(hydroxy)methyl)pyrrolidin-2-yl)methyl)-N-methyl-N-((6-oxo-1,6-dihydropyridin-2-yl)methyl)benzamide]
18 | 8.70 | – | 102 | COc1c(CN(C)C(=O)c2ccc(C[C@@H]3CC[C@H]([C@H](O)c4ccc(Cl)nc4)N3)cc2)n[nH]c1C [Example 16-A, 4-(((2S,5R)-5-((R)-(6-chloropyridin-3-yl)(hydroxy)methyl)pyrrolidin-2-yl)methyl)-N-((4-methoxy-5-methyl-1H-pyrazol-3-yl)methyl)-N-methylbenzamide]
19 | 8.40 | – | 102 | CN(Cc1cccnc1)C(=O)c1ccc(C[C@@H]2CC[C@H]([C@H](O)c3ccc(Cl)nc3)N2)cc1 [Example 21-A, 4-(((2S,5R)-5-((R)-(6-chloropyridin-3-yl)(hydroxy)methyl)pyrrolidin-2-yl)methyl)-N-methyl-N-(pyridin-3-ylmethyl)benzamide]
